Experimental data as given in US6737383B1, “Herbicidal oxadiazolidines” (priority 1999, dated 2004).

Tests used:
[1] = system: corn; assay: Test B pre/postemergence corn; format: in vivo, Zea mays
How it was run: (§1)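 Test chemicals in a non-phytotoxic solvent mixture with surfactant were sprayed preemergence onto planted seeds and postemergence onto plants 2 to 18 cm tall (1- to 4-leaf stage). After twelve to sixteen days in a greenhouse, injury was visually rated against untreated controls from 0 (no effect) to 10 (complete control).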

[2] = system: pigweed; assay: Test B pre/postemergence pigweed; format: in vivo, Amaranthus retroflexus; details: for Plant response rating, Redroot pigweed: Postemergence
How it was run: as §1

[3] = system: rape; assay: Test B pre/postemergence rape; format: in vivo, Brassica napus
How it was run: as §1

[4] = system: soybean; assay: Test B pre/postemergence soybean; format: in vivo, Glycine max; details: for Plant response rating, Soybean: Postemergence
How it was run: as §1

[5] = system: crabgrass; assay: Test B pre/postemergence crabgrass; format: in vivo, Digitaria sanguinalis
How it was run: as §1

[6] = system: wild oat; assay: Test B pre/postemergence wild oat; format: in vivo, Avena fatua; details: for Plant response rating, Wild oats: Postemergence
How it was run: as §1

[7] = system: sugar beet; assay: Test B pre/postemergence sugar beet; format: in vivo, Beta vulgaris
How it was run: as §1

[8] = system: morningglory; assay: Test B pre/postemergence morningglory; format: in vivo, Ipomoea hederacea
How it was run: as §1

[9] = system: purple nutsedge; assay: Test B pre/postemergence purple nutsedge; format: in vivo, Cyperus rotundus
How it was run: as §1

[10] = system: velvetleaf; assay: Test B pre/postemergence velvetleaf; format: in vivo, Abutilon theophrasti; details: for Plant response rating, Velvetleaf: Postemergence
How it was run: as §1

[11] = system: bedstraw; assay: Test B pre/postemergence bedstraw; format: in vivo, Galium aparine; details: Preemergence
How it was run: as §1

[12] = system: blackgrass; assay: Test B pre/postemergence blackgrass; format: in vivo, Alopecurus myosuroides
How it was run: as §1

[13] = system: wheat; assay: Test B pre/postemergence wheat; format: in vivo, Triticum aestivum; details: for Plant response rating, Wheat: Postemergence
How it was run: as §1

[14] = system: surinam grass; assay: Test B pre/postemergence surinam grass; format: in vivo, Brachiaria decumbens
How it was run: as §1

[15] = system: giant foxtail; assay: Test B pre/postemergence giant foxtail; format: in vivo, Setaria faberii
How it was run: as §1

[16] = system: cocklebur; assay: Test B pre/postemergence cocklebur; format: in vivo, Xanthium strumarium
How it was run: as §1

[17] = Postemergence, Rate 62 g/ha, scale of 0 to 10, 0 is no effect, 10 is complete control
[18] = Postemergence, Rate 125 g/ha, scale 0 to 10, 0 is no effect, 10 is complete control
[19] = Postemergence, Rate 500 g/ha, scale of 0 to 10 where 0 is no effect and 10 is complete control
[20] = Preemergence, Rate 62 g/ha, scale 0 to 10 (0 no effect, 10 complete control)
[21] = Preemergence, Rate 125 g/ha, scale 0 to 10, 0 is no effect, 10 is complete control
[22] = Preemergence, Rate 500 g/ha, scale of 0 to 10 where 0 is no effect and 10 is complete control
[23] = Rate 250 g/ha, Postemergence, scale of 0 to 10 where 0 is no effect and 10 is complete control
[24] = Rate 500 g/ha, scale of 0 to 10 where 0 is no effect and 10 is complete control
[25] = Rate 250 g/ha, scale of 0 to 10 where 0 is no effect and 10 is complete control

SMILES: CC(Cl)=CCn1c(=O)on(C(=O)N(c2ccccc2)C(C)C)c1=O [Compound 573]
- Corn plant response rating [1, 17]: 0
- Corn plant response rating [1, 18]: 0
- Plant response rating, Corn [1, 19]: 0
- Corn plant response rating [1, 20]: 0
- Corn plant response rating [1, 21]: 0
- Corn plant response rating (0 to 10 scale) ([1]; Preemergence, Rate 250 g/ha): 0
- Corn plant response rating [1, 22]: 3
- Plant response rating, Corn [1, 23]: 0
- Plant response rating, Redroot pigweed [2, 24]: 7
- Redroot pigweed plant response rating [2, 20]: 0
- Redroot pigweed plant response rating [2, 21]: 0
- Redroot pigweed plant response rating (0 to 10 scale) ([2]; Preemergence, Rate 250 g/ha): 9
- Redroot pigweed plant response rating [2, 22]: 9
- Plant response rating, Redroot pigweed [2, 25]: 4
- Rape plant response rating [3, 17]: 0
- Rape plant response rating [3, 18]: 2
- Plant response rating, Rape [3, 19]: 2
- Rape plant response rating [3, 20]: 2
- Rape plant response rating [3, 21]: 2
- Rape plant response rating (0 to 10 scale) ([3]; Preemergence, Rate 250 g/ha): 3
- Rape plant response rating [3, 22]: 3
- Plant response rating, Rape [3, 23]: 3
- Plant response rating, Soybean [4, 24]: 6
- Soybean plant response rating [4, 20]: 0
- Soybean plant response rating [4, 21]: 0
- Soybean plant response rating (0 to 10 scale) ([4]; Preemergence, Rate 250 g/ha): 0
- Soybean plant response rating [4, 22]: 0
- Plant response rating, Soybean [4, 25]: 4
- Crabgrass plant response rating [5, 17]: 6
- Crabgrass plant response rating [5, 18]: 9
- Plant response rating, Crabgrass [5, 19]: 9
- Crabgrass plant response rating [5, 20]: 3
- Crabgrass plant response rating [5, 21]: 9
- Crabgrass plant response rating (0 to 10 scale) ([5]; Preemergence, Rate 250 g/ha): 9
- Crabgrass plant response rating [5, 22]: 10
- Plant response rating, Crabgrass [5, 23]: 9
- Plant response rating, Wild oats [6, 24]: 0
- Wild oats plant response rating [6, 20]: 0
- Wild oats plant response rating [6, 21]: 0
- Wild oats plant response rating (0 to 10 scale) ([6]; Preemergence, Rate 250 g/ha): 0
- Wild oats plant response rating [6, 22]: 0
- Plant response rating, Wild oats [6, 25]: 0
- Sugarbeets plant response rating [7, 20]: 0
- Sugarbeets plant response rating [7, 21]: 2
- Sugarbeets plant response rating (0 to 10 scale) ([7]; Preemergence, Rate 250 g/ha): 2
- Sugarbeets plant response rating [7, 22]: 2
- Plant response rating, Sugarbeets [7, 23]: 0
- Morningglory plant response rating [8, 17]: 10
- Morningglory plant response rating [8, 18]: 10
- Plant response rating, Morningglory [8, 19]: 10
- Morningglory plant response rating [8, 20]: 0
- Morningglory plant response rating [8, 21]: 0
- Morningglory plant response rating (0 to 10 scale) ([8]; Preemergence, Rate 250 g/ha): 0
- Morningglory plant response rating [8, 22]: 4
- Plant response rating, Morningglory [8, 23]: 10
- Nutsedge plant response rating [9, 17]: 0
- Nutsedge plant response rating [9, 18]: 0
- Nutsedge plant response rating [9, 20]: 0
- Nutsedge plant response rating [9, 21]: 0
- Nutsedge plant response rating (0 to 10 scale) ([9]; Preemergence, Rate 250 g/ha): 0
- Nutsedge plant response rating [9, 22]: 0
- Plant response rating, Nutsedge [9, 23]: 0
- Plant response rating, Velvetleaf [10, 24]: 2
- Velvetleaf plant response rating [10, 20]: 0
- Velvetleaf plant response rating [10, 21]: 0
- Velvetleaf plant response rating (0 to 10 scale) ([10]; Preemergence, Rate 250 g/ha): 0
- Velvetleaf plant response rating [10, 22]: 3
- Plant response rating, Velvetleaf [10, 25]: 0
- Bedstraw plant response rating ([11]; Rate 62 g/ha, scale 0 to 10 (0 no effect, 10 complete control)): 0
- Bedstraw plant response rating ([11]; Rate 125 g/ha, scale 0 to 10, 0 is no effect, 10 is complete control): 0
- Bedstraw plant response rating (0 to 10 scale) ([11]; Rate 250 g/ha): 0
- Bedstraw plant response rating [11, 24]: 0
- Blackgrass plant response rating [12, 17]: 0
- Blackgrass plant response rating [12, 18]: 0
- Plant response rating, Blackgrass [12, 19]: 0
- Blackgrass plant response rating [12, 20]: 0
- Blackgrass plant response rating [12, 21]: 0
- Blackgrass plant response rating (0 to 10 scale) ([12]; Preemergence, Rate 250 g/ha): 2
- Blackgrass plant response rating [12, 22]: 6
- Plant response rating, Blackgrass [12, 23]: 0
- Plant response rating, Wheat [13, 24]: 0
- Wheat plant response rating [13, 20]: 0
- Wheat plant response rating [13, 21]: 0
- Wheat plant response rating (0 to 10 scale) ([13]; Preemergence, Rate 250 g/ha): 0
- Wheat plant response rating [13, 22]: 0
- Plant response rating, Wheat [13, 25]: 0
- B. signalgrass plant response rating [14, 17]: 0
- B. signalgrass plant response rating [14, 18]: 0
- Plant response rating, B. signalgrass [14, 19]: 0
- B. signalgrass plant response rating [14, 20]: 7
- B. signalgrass plant response rating [14, 21]: 7
- B. signalgrass plant response rating (0 to 10 scale, 0 is no effect, 10 is complete control) ([14]; Preemergence, Rate 250 g/ha): 9
- B. signalgrass plant response rating [14, 22]: 10
- Plant response rating, B. signalgrass [14, 23]: 0
- Giant foxtail plant response rating [15, 17]: 2
- Giant foxtail plant response rating [15, 18]: 3
- Plant response rating, Giant foxtail [15, 19]: 9
- Giant foxtail plant response rating [15, 20]: 9
- Giant foxtail plant response rating [15, 21]: 9
- Giant foxtail plant response rating (0 to 10 scale) ([15]; Preemergence, Rate 250 g/ha): 9
- Giant foxtail plant response rating [15, 22]: 10
- Plant response rating, Giant foxtail [15, 23]: 9
- Cocklebur plant response rating [16, 17]: 0
- Cocklebur plant response rating [16, 18]: 0
- Plant response rating, Cocklebur [16, 19]: 3
- Cocklebur plant response rating [16, 20]: 0
- Cocklebur plant response rating [16, 21]: 0
- Cocklebur plant response rating (0 to 10 scale) ([16]; Preemergence, Rate 250 g/ha): 0
- Cocklebur plant response rating [16, 22]: 0
- Plant response rating, Cocklebur [16, 23]: 2
